Assay results: patent publication US12029739B2, “SHP2 inhibitor and use thereof” (KANAPH THERAPEUTICS INC., priority 2021, dated 2024)
Read-outs that look alike come from different tables or passages of the source.

How the values were obtained:
SHP2 (full length) = biological target: T1, SHP2 (full length) (Homo sapiens, UniProt Q06124); experiment: Phosphatase assay (PTPase assay) with DiFMUP substrate; type: biochemical; conditions: SHP2 activated with SHP2 activating peptide; DiFMUP 80 μM, 2 hours; fluorescence; read-out: IC50 (PTPase aS say)
T1 construct: SHP2 (full length, diluted to 100 pM final concentration in reaction buffer, BPS bioscience, US); purchased BPS bioscience, US
T1 sequence (Q06124 1-593): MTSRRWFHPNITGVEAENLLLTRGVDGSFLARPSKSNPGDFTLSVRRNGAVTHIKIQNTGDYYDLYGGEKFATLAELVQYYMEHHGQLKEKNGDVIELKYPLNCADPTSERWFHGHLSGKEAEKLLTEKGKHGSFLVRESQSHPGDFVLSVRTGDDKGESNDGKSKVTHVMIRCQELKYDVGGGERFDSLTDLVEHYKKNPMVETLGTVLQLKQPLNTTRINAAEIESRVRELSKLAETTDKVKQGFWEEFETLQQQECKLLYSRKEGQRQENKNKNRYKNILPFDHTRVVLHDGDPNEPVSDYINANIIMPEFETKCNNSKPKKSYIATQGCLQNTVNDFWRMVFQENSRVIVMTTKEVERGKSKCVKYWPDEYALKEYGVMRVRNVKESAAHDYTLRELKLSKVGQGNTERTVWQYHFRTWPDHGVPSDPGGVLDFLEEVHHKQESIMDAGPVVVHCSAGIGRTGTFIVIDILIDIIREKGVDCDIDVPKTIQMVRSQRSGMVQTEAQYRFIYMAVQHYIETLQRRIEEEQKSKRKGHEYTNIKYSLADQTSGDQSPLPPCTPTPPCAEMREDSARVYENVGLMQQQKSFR

[1] = test system: phospho-ERK in MIA PaCa2 or H358 cells; experiment: Phospho-ERK assay (AlphaLisa); type: cell-based; conditions: MIA PaCa2 or H358 cells, compound incubated 1.5 hours, read-out: IC50 (p-ERK)

Row | Compound | IC50 (SHP2 (full length)) [nM] | IC50 ([1]; 1.5 h) [nM] | IC50 [1] [nM]
1 | C[C@@H]1OCC2(CCN(c3cnc(Sc4cccc(S(N)(=O)=O)c4Cl)c(N)n3)CC2)[C@@H]1N [Example 12, 3-((3-amino-5-((3S,4S)-4-amino-3-methyl-2-oxa-8-azaspiro[4.5]decan-8-yl)pyrazin-2-yl)thio)-2-chlorobenzenesulfonamide] | 3 to 100 | – | 45 to 1500
2 | COc1ccc(Cn2cnc3ccc(Sc4cnc(N5CCC6(CC5)CO[C@@H](C)[C@H]6N)cn4)c(Cl)c3c2=O)c(F)c1 [Example 72, 6-((5-((3S,4S)-4-amino-3-methyl-2-oxa-8-azaspiro[4.5]decan-8-yl)pyrazin-2-yl)thio)-5-chloro-3-(2-fluoro-4-methoxybenzyl)quinazolin-4(3H)-one] | < 3 | < 45 | –
3 | C[C@@H]1OCC2(CCN(c3cnc(Sc4ccc5ncn(CCCO)c(=O)c5c4Cl)cn3)CC2)[C@@H]1N [Example 63, 6-((5-((3S,4S)-4-amino-3-methyl-2-oxa-8-azaspiro[4.5]decan-8-yl)pyrazin-2-yl)thio)-5-chloro-3-(3-hydroxypropyl)quinazolin-4(3H)-one] | < 3 | < 45 | –
4 | C[C@@H]1OCC2(CCN(c3cnc(Sc4ccc5ncn(CC6(F)COC6)c(=O)c5c4Cl)cn3)CC2)[C@@H]1N [Example 80, 6-((5-((3S,4S)-4-amino-3-methyl-2-oxa-8-azaspiro[4.5]decan-8-yl)pyrazin-2-yl)thio)-5-chloro-3-((3-fluorooxetan-3-yl)methyl)quinazolin-4(3H)-one] | < 3 | < 45 | –
5 | C[C@@H]1OCC2(CCN(c3cnc(Sc4ccc5ncn(CCN(C)S(C)(=O)=O)c(=O)c5c4Cl)cn3)CC2)[C@@H]1N [Example 123, N-(2-(6-((5-((3S,4S)-4-amino-3-methyl-2-oxa-8-azaspiro[4,5]decan-8-yl)pyrazin-2-yl)thio)-5-chloro-4-oxoquinazolin-3(4H)-yl]ethyl)-N-methylmethanesulfonamide] | < 3 | < 45 | –
6 | CC1(CN)CCN(c2cnc(Sc3ccc4nc[nH]c(=O)c4c3Cl)cn2)CC1 [Example 3, 6-((5-(4-(aminomethyl)-4-methylpiperidin-1-yl)pyrazin-2-yl)thio)-5-chloroquinazolin-4(3H)-one] | 3 to 100 | 45 to 1500 | –
7 | C[C@@H]1OCC2(CCN(c3cnc(Sc4ccc5nc(Oc6ccccc6)[nH]c5c4Cl)cn3)CC2)[C@@H]1N [Example 125] | < 3 | – | < 45
8 | Cc1ccc(Cn2cnc3ccc(Sc4cnc(N5CCC6(CC5)CO[C@@H](C)[C@H]6N)cn4)c(Cl)c3c2=O)c(F)c1 [Example 69, 6-((5-((3S,4S)-4-amino-3-methyl-2-oxa-8-azaspiro[4.5]decan-8-yl)pyrazin-2-yl)thio)-5-chloro-3-(2-fluoro-4-methylbenzyl)quinazolin-4(3H)-one] | < 3 | < 45 | –
9 | C[C@@H]1OCC2(CCN(c3cnc(Sc4ccc5ncn(CC6CCOCC6)c(=O)c5c4Cl)cn3)CC2)[C@@H]1N [Example 65, 6-((5-((3S,4S)-4-amino-3-methyl-2-oxa-8-azaspiro[4.5]decan-8-yl)pyrazin-2-yl)thio)-5-chloro-3-((tetrahydro-2H-pyran-4-yl)methyl)quinazolin-4(3H)-one] | < 3 | < 45 | –
10 | C[C@@H]1OCC2(CCN(c3cnc(Sc4ccc5ncn(CC6=CCOCC6)c(=O)c5c4Cl)cn3)CC2)[C@@H]1N [Example 117, 6-((5-(3S,4S)-4-amino-3-methyl-2-oxa-8-azaspiro[4,5]decan-8-yl)pyrazin-2-yl)thio)-5-chloro-(3-((3,6-dihydro-2H-pyran-4-yl)methyl)quinazolin-4(3H)-one] | 3 to 100 | 45 to 1500 | –
11 | C[C@@H]1OCC2(CCN(c3cnc(Sc4ccc5ncn(CC6CCCO6)c(=O)c5c4Cl)cn3)CC2)[C@@H]1N (stereo partly drawn) [Example 62, 6-((5-((3S,4S)-4-amino-3-methyl-2-oxa-8-azaspiro[4.5]decan-8-yl)pyrazin-2-yl)thio)-5-chloro-3-((tetrahydrofuran-2-yl)methyl)quinazolin-4(3H)-one] | < 3 | < 45 | –
12 | COC(C)Cn1cnc2ccc(Sc3cnc(N4CCC5(CC4)CO[C@@H](C)[C@H]5N)cn3)c(Cl)c2c1=O (some centres unmarked) [Example 120] | < 3 | < 45 | –
13 | C[C@@H]1OCC2(CCN(c3cnc(Sc4ccc5ncn(CCS(C)(=O)=O)c(=O)c5c4Cl)cn3)CC2)[C@@H]1N [Example 82, 6-((5-((3S,4S)-4-amino-3-methyl-2-oxa-8-azaspiro[4.5]decan-8-yl)pyrazin-2-yl)thio)-5-chloro-3-(2-(methylsulfonyl)ethyl)quinazolin-4(3H)-one] | < 3 | < 45 | –
14 | C[C@@H]1OCC2(CCN(c3cnc(Sc4ccc5nc(Cc6cnccn6)[nH]c5c4Cl)cn3)CC2)[C@@H]1N [Example 136, (3S,4S)-8-(5-((7-chloro-2-(pyrazin-2-ylmethyl)-1H-benzo[d]imidazol-6-yl)thio)pyrazin-2-yl)-3-methyl-2-oxa-8-azaspiro[4.5]decan-4-amine] | < 3 | < 45 | –
15 | C[C@@H]1OCC2(CCN(c3cnc(Sc4ccc5ncn(Cc6ccccc6)c(=O)c5c4Cl)cn3)CC2)[C@@H]1N [Example 18, 6-((5-((3S,4S)-4-amino-3-methyl-2-oxa-8-azaspiro[4.5]decan-8-yl)pyrazin-2-yl)thio)-3-benzyl-5-chloroquinazolin-4(3H)-one] | < 3 | – | < 45
16 | COc1ccc(C)cc1Cn1cnc2ccc(Sc3cnc(N4CCC5(CC4)CO[C@@H](C)[C@H]5N)cn3)c(Cl)c2c1=O [Example 93, 6-((5-((3S,4S)-4-amino-3-methyl-2-oxa-8-azaspiro[4.5]decan-8-yl)pyrazin-2-yl)thio)-5-chloro-3-(2-methoxy-5-methylbenzyl)quinazolin-4(3H)-one] | < 3 | < 45 | –
17 | C[C@@H]1OCC2(CCN(c3cnc(Sc4ccc5nc(OC6CCOC6)[nH]c5c4Cl)cn3)CC2)[C@@H]1N (stereo partly drawn) [Example 126, (3S,4S)-8-(5-((7-chloro-2-((tetrahydrofuran-3-yl)oxy)-1H-benzo[d]imidazol-6-yl)thio)pyrazin-2-yl)-3-methyl-2-oxa-8-azaspiro[4,5]decan-4-amine] | 3 to 100 | 45 to 1500 | –

The next lines start with results.

Row | IC50 (SHP2 (full length)) [nM] | IC50 ([1]; 1.5 h) [nM] | Compound | IC50 [1] [nM]
18 | 3 to 100 | 45 to 1500 | N[C@H]1c2cccnc2CC12CCN(c1cnc(Sc3ccc4ncn(Cc5cccnc5)c(=O)c4c3Cl)cn1)CC2 [Example 106, (R)-6-((5-(5-amino-5,7-dihydrospiro[yclopenta[b]pyridine-6,4′-piperidin]-1′-yl)pyrazin-2-yl)thio)-5-chloro-(3-pyridin-3-ylmethyl)quinazolin-4(3H)-one] | –
19 | 3 to 100 | 45 to 1500 | CC(C)(O)Cn1cnc2ccc(Sc3cnc(N4CCC5(CC4)Cc4ncsc4[C@@H]5N)cn3)c(Cl)c2c1=O [Example 146] | –
20 | < 3 | < 45 | N[C@@H]1c2cccnc2CC12CCN(c1cnc(Sc3ccc4ncn(Cc5ccccc5)c(=O)c4c3Cl)cn1)CC2 [Example 102, (S)-6-((5-(5-amino-5,7-dihydrospiro[yclopenta[b]pyridine-6,4′-piperidin]-1′-yl)pyrazin-2-yl)thio)-3-benzyl-5-chloroquinazolin-4(3H)-one] | –
21 | 3 to 100 | – | COCCn1cnc2ccc(Sc3cnc(N4CCC5(CC4)Cc4ncsc4C5N)cn3)c(Cl)c2c1=O (stereo in doubt) [Example 145, 6-[5-[(6R)-6-aminospiro[4,6-dihydrocyclopenta[d]thiazole-5,4′-piperidin]-1′-yl]pyrazin-2-yl]sulfanyl-5-chloro-3-(2-methoxyethyl)quinazolin-4-one] | 45 to 1500
22 | < 3 | < 45 | COCCn1cnc2ccc(Sc3cnc(N4CCC5(CC4)Cc4nc(Cl)sc4[C@H]5N)cn3)c(Cl)c2c1=O [Example 161, 6-[5-[(6S)-6-amino-2-chloro-spiro[4,6-dihydrocyclopenta[d]thiazole-5,4′-piperidin]-1′-yl]pyrazin-2-yl]sulfanyl-5-chloro-3-(2-methoxyethyl)quinazolin-4-one] | –
23 | < 3 | < 45 | N[C@@H]1c2cccnc2CC12CCN(c1cnc(Sc3ccc4ncn(Cc5cccnc5)c(=O)c4c3Cl)cn1)CC2 [Example 105, (S)-6-((5-(5-amino-5,7-dihydrospiro[yclopenta[b]pyridine-6,4′-piperidin]-1′-yl)pyrazin-2-yl)thio)-5-chloro-(3-pyridin-3-ylmethyl)quinazolin-4(3H)-one] | –
24 | < 3 | < 45 | C[C@@H]1OCC2(CCN(c3cnc(Sc4ccc5ncn(Cc6ccoc6)c(=O)c5c4Cl)cn3)CC2)[C@@H]1N [Example 119] | –
25 | < 3 | < 45 | C[C@@H]1OCC2(CCN(c3cnc(Sc4ccc5ncn(CC(=O)c6cccnc6)c(=O)c5c4Cl)cn3)CC2)[C@@H]1N [Example 90, 6-((5-((3S,4S)-4-amino-3-methyl-2-oxa-8-azaspiro[4.5]decan-8-yl)pyrazin-2-yl)thio)-5-chloro-3-(2-oxo-2-(pyridin-3-yl]ethyl)quinazolin-4(3H)-one] | –
